Laboratory results from US11576897B2, “Therapeutic agent for non-motor symptoms associated with Parkinson's disease” (priority 2017, dated 2023).

Biological target: human 5-HT2A receptor (Homo sapiens (Human), UniProt P28223)
Assay: biochemical
Assay type: binding
Conditions: [3H]-ketanserin, human 5-HT2A receptor-expressed CHO cell membrane; read-out: 5-HT2A receptor binding inhibition constant Ki

Q: How did the Ki turn out when `CNCc1cc(OCc2ccccc2)n(CC2(C)CCCCC2)n1` [Example 331, 1-{5-(benzyloxy)-1-[(1-methylcyclohexyl)methyl]-1H-pyrazol-3-yl}-N-methylmethanamine] was run?
A: 2.8 nM

Q: How did the Ki turn out when `CNCc1cc(OCc2cc(F)ccc2F)n(CC2CCCCC2)n1` [Example 33, 1-{1-(cyclohexylmethyl)-5-[(2,5-difluorobenzyl)oxy]-1H-pyrazol-3-yl}-N-methylmethanamine] was run?
A: 0.5 nM

Q: How did the Ki turn out when `Cl.[2H]C([2H])(Oc1cc(CNC)nn1CC1CCCCC1)c1cc(F)ccc1F` [Example 497, 1-[1-(Cyclohexylmethyl)-5-{[(2,5-difluorophenyl) (^2H2)methyl]oxy}-1H-pyrazol-3-yl]-N-methylmethanamine Hydrochloride] was run?
A: 2.4 nM

Q: With `CNCc1cc(OCc2ccccc2F)n(C(C)C2CCCCC2)n1` (centres unmarked) [Example 293, 1-{1-(1-cyclohexylethyl)-5-[(2-fluorobenzyl)oxy]-1H-pyrazol-3-yl}-N-methylmethanamine] as the compound, how does the Ki read?
A: 1.1 nM

Q: How did the Ki turn out when `CNCc1cc(OCc2cccc(Cl)c2)n(CC2OC3CCC2CC3)n1` (centres unmarked) [Example 508, 1-{5-[(3-chlorobenzyl)oxy]-1-(2-oxabicyclo[2.2.2]oct-3-ylmethyl)-1H-pyrazol-3-yl}-N-methylmethanamine] was run?
A: 9.4 nM

Q: `CNCc1cc(OCc2cc(Cl)ccc2F)n(CC(C)(C)C)n1` [Example 259, 1-{5-[(5-chloro-2-fluorobenzyl)oxy]-1-(2,2-dimethylpropyl)-1H-pyrazol-3-yl}-N-methylmethanamine] was tested. Which Ki did it give?
A: 7.5 nM

Q: Which Ki does the source give for `CNCc1cc(OCc2cc(F)ccc2F)n(CC2CCC(F)(F)CC2)n1` [Example 124, 1-{5-[(2,5-difluorobenzyl)oxy]-1-[(4,4-difluorocyclohexyl)methyl]-1H-pyrazol-3-yl}-N-methylmethanamine] here?
A: 1.7 nM

Q: How did the Ki turn out when `CNCc1cc(OCc2cc(Cl)ccc2F)n(C(C)C2CCCC2)n1` (centres unmarked) [Example 291, 1-{5-[(5-chloro-2-fluorobenzyl)oxy]-1-(1-cyclopentylethyl)-1H-pyrazol-3-yl}-N-methylmethanamine] was run?
A: 2.5 nM

Q: Which Ki does the source give for `CNCc1cc(OCc2cc(F)ccc2F)n(CCC(C)(C)C)n1` [Example 266, 1-{5-[(2,5-difluorobenzyl)oxy]-1-(3,3-dimethylbutyl)-1H-pyrazol-3-yl}-N-methylmethanamine] here?
A: 0.65 nM

Q: With `CNCc1cc(OCc2cc(F)ccc2F)n(Cc2ccc(F)cc2)n1` [Example 219, 1-{5-[(2,5-difluorobenzyl)oxy]-1-(4-fluorobenzyl)-1H-pyrazol-3-yl}-N-methylmethanamine] as the compound, how does the Ki read?
A: 1.3 nM

Q: With `CNCc1cc(OCc2ccc(F)cc2)n(CC2CCCC2)n1` [Example 137, 1-{1-(cyclopentylmethyl)-5-[(4-fluorobenzyl)oxy]-1H-pyrazol-3-yl}-N-methylmethanamine] as the compound, how does the Ki read?
A: 1.3 nM

Q: With `CNCc1cc(OCc2cc(F)c(F)cc2F)n(Cc2ccc(C)cc2)n1` [Example 286, N-methyl-1-{1-(4-methylbenzyl)-5-[(2,4,5-trifluorobenzyl)oxy]-1H-pyrazol-3-yl}methanamine] as the compound, how does the Ki read?
A: 2.4 nM

Q: How did the Ki turn out when `CNC(C)c1cc(OCc2cc(F)ccc2F)n(CCC2CCCC2)n1` (centres unmarked) [Example 315, 1-{1-(2-cyclopentylethyl)-5-[(2,5-difluorobenzyl)oxy]-1H-pyrazol-3-yl}-N-methylethanamine] was run?
A: 0.6 nM

Q: `CNCc1cc(OCc2cc(F)c(F)cc2F)n(CCC(C)(C)C)n1` [Example 284, 1-{1-(3,3-dimethylbutyl)-5-[(2,4,5-trifluorobenzyl)oxy]-1H-pyrazol-3-yl}-N-methylmethanamine] was tested. Which Ki did it give?
A: 1.8 nM

Q: `CNCc1cc(OCc2cc(Cl)ccc2F)n(CC(C)C)n1` [Example 256, 1-{5-[(5-chloro-2-fluorobenzyl)oxy]-1-(2-methylpropyl)-1H-pyrazol-3-yl}-N-methylmethanamine] was tested. Which Ki did it give?
A: 4.5 nM

Q: Which Ki does the source give for `CNCc1cc(OCc2ccccc2)n(CC2CC3CCC2C3)n1` (centres unmarked) [Example 115, 1-[5-(benzyloxy)-1-(bicyclo[2.2.1]hept-2-ylmethyl)-1H-pyrazol-3-yl]-N-methylmethanamine] here?
A: 1 nM

Q: For `CNCc1cc(OCc2ccccc2)n(Cc2ccccc2)n1` [Example 1, 1-[l-benzyl-5-(benzyloxy)-1H-pyrazol-3-yl]-N-methylmethanamine], which Ki is on record?
A: 5.5 nM

Q: For `Fc1ccc(F)c(COc2cc(CNC3CC3)nn2CC2CCCCC2)c1` [Example 342, N-({1-(cyclohexylmethyl)-5-[(2,5-difluorobenzyl)oxy]-1H-pyrazol-3-yl}methyl)cyclopropanamine], which Ki is on record?
A: 4.9 nM

Q: `CNCc1cc(OCc2cc(F)c(F)cc2F)n(CC2CCCC2)n1` [Example 280, 1-{1-(cyclopentylmethyl)-5-[(2,4,5-trifluorobenzyl)oxy]-1H-pyrazol-3-yl}-N-methylmethanamine] was tested. Which Ki did it give?
A: 1.3 nM

Q: `CNCc1cc(OCc2cc(F)ccc2F)n(Cc2ccc(C)cc2)n1` [Example 230, 1-{5-[(2,5-difluorobenzyl)oxy]-1-(4-methylbenzyl)-1H-pyrazol-3-yl}-N-methylmethanamine] was tested. Which Ki did it give?
A: 2.7 nM

Same assay, conditions: read-out: 5-HT2A receptor binding inhibition constant Ki

Q: Which Ki does the source give for `CNCc1cc(OC(F)(F)c2ccccc2)n(CC2CCCCC2)n1` [Example 349, 1-{1-(cyclohexylmethyl)-5-[difluoro(phenyl)methoxy]-1H-pyrazol-3-yl}-N-methylmethanamine] here?
A: 6 nM

Q: `CNCc1cc(OCc2ccccc2)n(C(CF)C2CCCCC2)n1` (centres unmarked) [Example 330, 1-[5-(benzyloxy)-1-(1-cyclohexyl-2-fluoroethyl)-1H-pyrazol-3-yl]-N-methylmethanamine] was tested. Which Ki did it give?
A: 2.8 nM

Q: For `CNCc1cc(OCc2cc(Cl)ccc2F)n(CC2CCCC2)n1` [Example 148, 1-{5-[(5-chloro-2-fluorobenzyl)oxy]-1-(cyclopentylmethyl)-1H-pyrazol-3-yl}-N-methylmethanamine], which Ki is on record?
A: 1.8 nM

Q: `CNCc1cc(OCc2ccc(F)cc2F)n(CC2CCCC2)n1` [Example 144, 1-{1-(cyclopentylmethyl)-5-[(2,4-difluorobenzyl)oxy]-1H-pyrazol-3-yl}-N-methylmethanamine] was tested. Which Ki did it give?
A: 0.2 nM

Q: `CNCc1cc(OCc2cccc(Cl)c2)n(CC2CCc3ccccc3O2)n1` (centres unmarked) [Example 341, 1-{5-[(3-chlorobenzyl)oxy]-1-(3,4-dihydro-2H-chromen-2-ylmethyl)-1H-pyrazol-3-yl}-N-methylmethanamine] was tested. Which Ki did it give?
A: 4.9 nM

Q: With `CNCc1cc(OCc2ccccc2F)n(Cc2ccc(F)cc2)n1` [Example 218, 1-{1-(4-fluorobenzyl)-5-[(2-fluorobenzyl)oxy]-1H-pyrazol-3-yl}-N-methylmethanamine] as the compound, how does the Ki read?
A: 1.2 nM

Q: With `CNCc1cc(OCc2ccccc2)n(CC2CCCCC2)n1` [Example 5, 1-[5-(benzyloxy)-1-(cyclohexylmethyl)-1H-pyrazol-3-yl]-N-methylmethanamine] as the compound, how does the Ki read?
A: 5.9 nM

Q: With `CNCc1cc(OCc2ccccc2)n(C(C)C2CCCC2)n1` (centres unmarked) [Example 288, 1-[5-(benzyloxy)-1-(1-cyclopentylethyl)-1H-pyrazol-3-yl]-N-methylmethanamine] as the compound, how does the Ki read?
A: 5.2 nM

Q: With `CNCc1cc(OCc2ccc(F)cc2C)n(CC2CCCCC2)n1` [Example 31, 1-{1-(cyclohexylmethyl)-5-[(4-fluoro-2-methylbenzyl)oxy]-1H-pyrazol-3-yl}-N-methylmethanamine] as the compound, how does the Ki read?
A: 1.4 nM

Biological target: human serotonin transporter (SERT) (Homo sapiens (Human), UniProt P31645)
Assay: Human serotonin transporter (SERT) binding test
Conditions: [3H]-citalopram, h-SERT/CHO cell membrane; read-out: h-SERT binding inhibition constant Ki

Q: `CNCc1cc(OCc2ccccc2)n(CC2(C)CCCCC2)n1` [Example 331, 1-{5-(benzyloxy)-1-[(1-methylcyclohexyl)methyl]-1H-pyrazol-3-yl}-N-methylmethanamine] was tested. Which Ki did it give?
A: 1.3 nM

Q: How did the Ki turn out when `CNCc1cc(OCc2cc(F)ccc2F)n(CC2(F)CCCCC2)n1` [Example 127, 1-{5-[(2,5-difluorobenzyl)oxy]-1-[(1-fluorocyclohexyl)methyl]-1H-pyrazol-3-yl}-N-methylmethanamine] was run?
A: 1.3 nM

Q: Which Ki does the source give for `CNCc1cc(OCc2ccccc2F)n(C(C)C2CCCCC2)n1` (centres unmarked) [Example 293, 1-{1-(1-cyclohexylethyl)-5-[(2-fluorobenzyl)oxy]-1H-pyrazol-3-yl}-N-methylmethanamine] here?
A: 0.67 nM

Q: Which Ki does the source give for `CNCc1cc(OCc2cccc(Cl)c2)n(CC2OC3CCC2CC3)n1` (centres unmarked) [Example 508, 1-{5-[(3-chlorobenzyl)oxy]-1-(2-oxabicyclo[2.2.2]oct-3-ylmethyl)-1H-pyrazol-3-yl}-N-methylmethanamine] here?
A: 8.1 nM

Q: With `CNCc1cc(OCc2cc(F)ccc2F)n(CC2CCC(F)(F)CC2)n1` [Example 124, 1-{5-[(2,5-difluorobenzyl)oxy]-1-[(4,4-difluorocyclohexyl)methyl]-1H-pyrazol-3-yl}-N-methylmethanamine] as the compound, how does the Ki read?
A: 0.71 nM

Q: For `CNCc1cc(OCc2cc(Cl)ccc2F)n(C(C)C2CCCC2)n1` (centres unmarked) [Example 291, 1-{5-[(5-chloro-2-fluorobenzyl)oxy]-1-(1-cyclopentylethyl)-1H-pyrazol-3-yl}-N-methylmethanamine], which Ki is on record?
A: 1.2 nM
